Consider two molecules from patent US20130096189A1, “USE OF GLABRANIN FOR STIMULATING HAIR GROWTH” (priority 2010, published 2013).

This assay concerns Fibroblast cells from the NIH3T3D4 cell line. Put plainly: In-vitro fibroblast cell growth in low serum (colourimetric cell number, Promega CellTiter), with or without potassium channel blockers. The assay is classed as cell-based. Particulars: for Data (absorbance at 450 nM), cell number: 5 days, mean ± SD, 8 replicates. Here is the method:
The assay described hereinbelow looks at the effect of an active on potentiation of cell growth in a low nutrient environment, ie at the effects of the active on cell growth factors which are mitogenic, rather than on the identification of an active which itself is mitogenic.
Glabranin (TimTec) was added in 50 μL of dimethylsulphoxide (DMSO) and vortexed to dissolve. […] of the glabranin in DMSO was added to Dulbeccos Minimum Essential Medium (DMEM) containing 2% v/v foetal calf serum (FCS) to give a 10 μg/mL glabranin solution. Serial dilutions were prepared using DMSO/DMEM/FCS as above. 1 mM minoxidil in DMSO/DMEM/FCS as above was used as a positive control. A DMSO control in DMEM containing 2% v/v FCS was also prepared.
Fibroblast cells from the NIH3T3D4 cell line (European collection of animal cell cultures, Health Protection Agency Porton Down, England) were cultured in DMEM media in the absence of antibiotics. The cells were removed using 10 mL of 0.25% w/w trypsin and 0.038% w/v EDTA in Hank's medium for 5 minutes, 10 mL DMEM containing 10% v/v FCS was added and the cells were spun down at 1000 rpm for 2 minutes. After removing the medium the cells were washed in 10 mL of DMEM containing 10% v/v FCS and spun at 1000 rpm for 2 minutes. The cells were then resuspended in 10 mL of DMEM containing 10% v/v FCS and counted using a cell counting chamber. A suspension of cells containing 5000 cells per 100 μL (50,000 cells per mL) was prepared and 100 μL of the cell suspension was plated out into a 96 well plate. The cells were allowed to adhere overnight in an incubator at 37 degrees centigrade in an atmosphere of 5% v/v CO2 in air. After washing the wells thrice with DMEM (without FCS), 100 μL of the test solution (containing […] glabranin per mL DMSO/DMEM/FCS with or without 10 μM glibenclamide (a potassium ion channel blocker) and 0.1 mM tetraethylammonium (TEA is a potassium ion channel blocker which directly binds to the channel) was added to each of eight wells. Fresh media containing glabranin was added every day for 5 days.
Cell numbers were determined after 5 days in test medium using a colourimetric method (Promega CellTiter Reagent from Promega). 20 μL Reagent was added to each well and the plate incubated as before for one hour.

For the molecule `Nc1cc(N2CCCCC2)nc(N)[n+]1[O-]` [Minoxidil, reference compound], the “Data (absorbance at 450 nM), cell number” value (Minoxidil 75 μM in 2% FCS/DMSO) amounted to 0.36 ± 0.04.
`CC(C)=CCc1c(O)cc(O)c2c1O[C@H](c1ccccc1)CC2=O` [glabranin, (2S)-5,7-dihydroxy-8-(3-methylbut-2-enyl)-2-phenyl-2,3-dihydrochromen-4-one]: the “Data (absorbance at 450 nM), cell number” value runs as follows: (glabranin 0.01 μg/ml in 2% FCS/DMSO) 0.34 ± 0.02; (glabranin 0.1 μg/ml in 2% FCS/DMSO) 0.34 ± 0.02; (glabranin 1 μg/ml in 2% FCS/DMSO) 0.31 ± 0.02. Also, under “growth increase reversed by potassium channel blockers”, the “potassium channel opening leading to fibroblast cell growth (conclusion from table 1)” value was “potassium channel opener”.
